Laboratory results: patent US9938222B2 (BRISTOL-MYERS SQUIBB COMPANY, priority 2014, dated 2018)

Columns and labels:
human GPR120 = human GPR120 (Homo sapiens (Human), UniProt Q5NUL3); assay: GPR120 pERK AlphaScreen SureFire Assay (human GPR120 pERK assay); type: cell-based; settings: CHO cells stably transfected with short form of human GPR120
Summary of the method: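 CHOA12 cells stably expressing short-form human GPR120, serum-starved 2 h, then stimulated 7 min at 37° C with compound (33.33 μM to 0.56 nM, 11-point). Phospho-ERK1/2 read by AlphaScreen SureFire in lysates. Activation scaled between DMSO and 50 μM linolenic acid; EC50 from a 4-parameter logistic fit.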

C57BL/6 mice = assay: Acute Oral Glucose Tolerance Test; type: in vivo; settings: dosed at 30 mg/kg orally 60 min before glucose challenge (2 g/kg), AUC t=0-120 min compared to vehicle
Procedure: In Vivo GPR120 Assays 1) Acute Oral Glucose Tolerance Test
C57BL/6 mice were housed individually and fed a standard rodent chow diet. At approximately 11 weeks age, after a 5 h fast, these mice were orally treated with vehicle or test compounds 60 min before a glucose challenge (2 g/kg). Blood glucose levels were determined from tail bleeds taken at −60, 0, 15, 30, 60 and 120 min after the glucose challenge. […] This AUC for compound treatment is compared to vehicle treatment.

human GPR120, sequence (Q5NUL3 whole entry): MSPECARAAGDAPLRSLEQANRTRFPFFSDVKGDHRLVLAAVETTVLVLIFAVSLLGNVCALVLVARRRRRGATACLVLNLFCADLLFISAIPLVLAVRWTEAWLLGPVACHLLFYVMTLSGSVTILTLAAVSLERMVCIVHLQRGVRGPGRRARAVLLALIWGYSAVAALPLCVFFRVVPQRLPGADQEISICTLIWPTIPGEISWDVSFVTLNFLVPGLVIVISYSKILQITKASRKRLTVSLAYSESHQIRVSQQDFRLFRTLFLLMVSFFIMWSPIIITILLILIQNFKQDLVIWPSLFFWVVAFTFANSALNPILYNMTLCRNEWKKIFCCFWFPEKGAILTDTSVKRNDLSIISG

EC50 (human GPR120): 0.14 µM
SMILES: O=C(O)[C@H]1C[C@@H]1COc1ccc(-c2cc(Oc3cccc(F)c3)cc(F)c2F)cc1F (single isomer, unassigned) [Example 105]
reduced glucose AUC (C57BL/6 mice): 55%
